# Measured values from US10034886B2, “GLP-1 receptor modulators” (Celgene International II SÀRL, priority 2014, dated 2018).
# Biological target: T1, GLP-1R (Homo sapiens, UniProt P43220)
# T1 construct: host or cells: GLP-1R CRE-bla CHO-K1 cells
# Assay: EC20 GLP-1(9-36) PAM cAMP assay: dose response of compound in the presence of fixed concentration of GLP-1(9-36)
# Format: cell-based
# Details: GLP-1R CRE-bla CHO-K1 cells, compound dose response with fixed concentration of GLP-1(9-36), read-out: EC20 GLP-1(9-36) PAM EC50
# Procedure, shortened: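 GLP-1R CRE-bla CHO-K1 cells treated 30 min at 37 °C with 12-point compound dose response plus fixed EC20 GLP-1(9-36), with IBMX, in HBSS/HEPES/0.1% BSA pH 7.4. Total cAMP measured by luminescent detection against standard curve; EC50 and Emax from non-linear regression.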
# T1 sequence (P43220 24-463): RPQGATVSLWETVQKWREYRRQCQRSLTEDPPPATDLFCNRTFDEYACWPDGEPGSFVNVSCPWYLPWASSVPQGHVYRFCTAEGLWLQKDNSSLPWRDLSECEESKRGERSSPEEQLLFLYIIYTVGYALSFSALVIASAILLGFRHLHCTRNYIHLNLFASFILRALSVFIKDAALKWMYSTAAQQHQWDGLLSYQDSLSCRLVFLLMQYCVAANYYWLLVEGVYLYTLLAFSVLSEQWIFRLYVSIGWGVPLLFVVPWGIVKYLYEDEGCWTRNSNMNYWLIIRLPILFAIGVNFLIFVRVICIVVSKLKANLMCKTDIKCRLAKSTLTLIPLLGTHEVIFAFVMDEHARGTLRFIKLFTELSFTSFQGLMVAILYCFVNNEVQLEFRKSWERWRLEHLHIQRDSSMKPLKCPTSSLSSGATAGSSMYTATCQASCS
# T1 sequence (P01275 100-127 partner limits assumed): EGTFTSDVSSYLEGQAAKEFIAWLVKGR
row,EC50 [nM],Structure (SMILES)
1,< 800,CCC[C@H]1CC[C@H](C2CCN(c3cnc(-c4ccc(CC(NC(=O)c5ccc(C(C)(C)C)s5)C(=O)NS(=O)(=O)CCN(C)C)cc4)nc3)CC2)CC1 (stereo partly drawn) [Compound 1547]
2,800 to 2500,"CCCCCCCOc1ccc(-c2nnc(-c3ccc(CC(NC(=O)c4ccc(C(C)(C)C)cc4)C(=O)O)cc3F)s2)cc1 (stereo in doubt) [Compound 1552, (S)-2-(4-(tert-butyl)benzamido)-3-(3-fluoro-4-(5-(4-(heptyloxy)phenyl)-1,3,4-thiadiazol-2-yl)phenyl)propanoic acid]"
3,< 800,CC(C)Oc1ccc(-c2ccc(-c3cnc(-c4ccc(C[C@H](NC(=O)c5ccc(C(C)(C)C)s5)C(=O)N5CC(C(=O)O)C5)cc4)nc3)c(F)c2)cc1 [Compound 1396]
4,< 800,CCC[C@H]1CC[C@H](C2CCN(c3cnc(-c4ccc(C[C@H](NC(=O)c5ccc(C6CC6)cc5)C(=O)N5CC(C(=O)O)C5)cc4)nc3)CC2)CC1 [Compound 1520]
5,< 800,CCC[C@H]1CC[C@H](C2CCN(c3cnc(-c4ccc(C[C@H](NC(=O)c5ccc(C(C)(C)C)s5)C(=O)N5CCC[C@H]5C(=O)O)cc4)nc3)CC2)CC1 [Compound 1419]
6,5000 to 10000,C[C@@H](NC(=O)[C@H](Cc1ccc(-c2ncc(/C=C/c3cccc(C(F)(F)F)c3)cn2)cc1)NC(=O)c1ccc(C(C)(C)C)s1)C(=O)O [Compound 1251]
7,800 to 2500,CCC[C@H]1CC[C@H](C2CCN(c3cnc(-c4ccc(C[C@H](NC(=O)c5ccc(C6CC6)cn5)C(=O)N5CC(C(=O)O)C5)cc4)nc3)CC2)CC1 [Compound 1538]
8,< 800,CC[C@H]1CC[C@H](c2ccc(-c3cnc(-c4ccc(C[C@H](NC(=O)c5ccc(C(C)(C)C)s5)C(=O)N[C@@H](CO)C(=O)O)cc4)nc3)cc2)CC1 [Compound 1326]
9,< 800,CCC[C@H]1CC[C@H](C2CCN(c3cnc(-c4ccc(C[C@H](NC(=O)c5ccc(C(C)(C)C)s5)C(=O)N5CCC[C@H](C(=O)O)C5)cc4)nc3)CC2)CC1 [Compound 1456]
10,800 to 2500,C[C@@H](NC(=O)[C@H](Cc1ccc(-c2ncc(-c3ccc(-c4ccc(C(C)(C)C)cc4)cc3)cn2)cc1)NC(=O)c1ccc(C(C)(C)C)s1)C(=O)O [Compound 1312]
11,800 to 2500,C[C@@H](NC(=O)[C@H](Cc1ccc(-c2ncc(/C=C/c3cc(C(F)(F)F)cc(C(F)(F)F)c3)cn2)cc1)NC(=O)c1ccc(C(C)(C)C)s1)C(=O)O [Compound 1261]
12,< 800,CN(CCC(C)(O)c1cccc(OC(F)(F)F)c1)c1cnc(-c2ccc(CC(NC(=O)c3ccc(C(C)(C)C)s3)C(=O)N3CC(C(=O)O)C3)cc2)nc1 (stereo not drawn) [Compound 1485]
13,< 800,CCC[C@H]1CC[C@H](C2CCN(c3cnc(-c4ccc(C[C@H](NC(=O)c5ccc(C(C)(C)C)s5)C(=O)N[C@H]5C[C@H](C(=O)O)C5)cc4)nc3)CC2)CC1 [Compound 1447]
14,800 to 2500,CC(=O)c1ccc(-c2ccc(-c3cnc(-c4ccc(C[C@H](NC(=O)c5ccc(C(C)(C)C)s5)C(=O)O)cc4)nc3)cc2)cc1 [Compound 1352]
15,< 800,CCC[C@H]1CC[C@H](C2CCN(c3cnc(-c4ccc(C[C@H](NC(=O)c5ccc(CC)s5)C(=O)N5CC(C(=O)O)C5)cc4)nc3)CC2)CC1 [Compound 1533]
16,< 800,CC[C@H]1CC[C@H](c2ccc(-c3cnc(-c4ccc(C[C@H](NC(=O)c5ccc(C(C)(C)C)nc5)C(=O)O)cc4)nc3)cc2)CC1 [Compound 1367]
17,2500 to 5000,"CC[C@H]1CC[C@H](c2ccc(-c3ccc(-c4ccc(C[C@H](NC(=O)c5ccc(C(C)(C)C)s5)C(=O)O)cc4)nc3)cc2)CC1 [Compound 1333, (S)-2-(5-(tert-butyl)thiophene-2-carboxamido)-3-(4-(5-(4-((1r,4r)-4-ethylcyclohexyl)phenyl)pyridin-2-yl)phenyl)propanoic acid]"
18,< 800,CC(C)(C)c1ccc(C(=O)N[C@@H](Cc2ccc(-c3ncc(-c4ccc(-c5ccc(C6CCC6)cc5)cc4F)cn3)cc2)C(=O)N2CC(C(=O)O)C2)s1 [Compound 1210]
19,< 800,CCC[C@H]1CC[C@H](C2CCN(c3cnc(-c4ccc(C[C@H](NC(=O)c5ccc(C(C)(C)C)s5)C(=O)N[C@@H](CC(=O)O)C(=O)O)cc4)nc3)CC2)CC1 [Compound 1463]

# Same assay, conditions: dose response of compound in presence of fixed concentration of GLP-1(9-36), GLP-1R CRE-bla CHO-K1 cells, read-out: EC20 GLP-1(9-36) PAM EC50
row,EC50 [nM],Structure (SMILES)
1,800 to 2500,CCCCCCCOc1ccc(-c2cnc(-c3ccc(C[C@H](NC(=O)c4ccc(C(C)(C)C)s4)C(=O)N4CC[C@@H]4C(=O)O)cc3)nc2)cc1 [Compound 669]
2,< 800,CCCCCCCOc1ccc(-c2cnc(-c3ccc(C[C@H](NC(=O)c4ccc(C(C)(C)C)s4)C(=O)N[C@H](Cc4ccccc4)C(=O)O)cc3)nc2)cc1 [Compound 647]
3,< 800,Cc1ccc(-c2ccc(-c3cnc(-c4ccc(C[C@H](NC(=O)c5ccc(C(C)(C)C)s5)C(=O)N[C@H](C)C(=O)O)cc4)nc3)cc2)cc1C [Compound 1138]
4,2500 to 5000,CC(C)(C)c1ccc(C(=O)N[C@@H](Cc2ccc(-c3ncc(-c4nc(-c5cccc(Cl)c5)no4)cn3)cc2)C(=O)NCCC(=O)O)cc1 [Compound 758]
5,800 to 2500,CCCCCCCOc1ccc(-c2cnc(-c3ccc(C[C@H](NC(=O)c4ccc(C(C)(C)C)s4)C(=O)N[C@@H](CC(=O)O)C(=O)N(C)CCN(C)C)cc3)nc2)cc1 [Compound 531]
6,< 800,CC(C)(C)c1ccc(C(=O)N[C@@H](Cc2ccc(-c3ncc(-c4ccc(-c5ccccc5)cc4)cn3)cc2)C(=O)N2CC(C(=O)O)C2)s1 [Compound 1090]
7,2500 to 5000,CCCCCCCOc1ccc(-c2cnc(-c3ccc(C[C@H](NC(=O)c4ccc(C(C)(C)C)s4)C(=O)O)cc3)c(C)c2)cc1 [Compound 946]
8,800 to 2500,CCCCCCCOc1ccc(-c2cnc(-c3ccc(C[C@H](NC(=O)c4ccc(C(C)(C)C)nc4)C(=O)N4CCC[C@H]4C(=O)O)cc3)nc2)cc1 [Compound 1077]
9,800 to 2500,CCCCCCCOc1ccc(-c2cnc(-c3ccc(C[C@H](NC(=O)c4ccc(C(C)(C)C)s4)C(=O)N[C@@H](CC(=O)NCC(N)=O)C(=O)O)cc3)nc2)cc1 [Compound 518]
10,2500 to 5000,CCCc1ccc(-c2ccc(-c3cnc(-c4ccc(C[C@H](NC(=O)c5ccc(C(C)(C)C)s5)C(=O)O)cc4)nc3)c(F)c2)cc1 [Compound 1061]
11,800 to 2500,CCCCCCCCOc1ccc(-c2cnc(-c3ccc(C[C@H](NC(=O)c4ccc(C(C)(C)C)cc4)C(=O)NCCC(=O)O)cc3)nc2)cc1 [Compound 712]
12,800 to 2500,CCCCCCCOc1ccc(-c2cnc(-c3ccc(C[C@H](NC(=O)c4ccc(C(C)(C)C)s4)C(=O)N[C@@H](CC(=O)O)C(=O)N4CCNCC4)cc3)nc2)cc1 [Compound 534]
13,2500 to 5000,CC(C)(C)c1ccc(-c2cnc(-c3ccc(CC(NC(=O)c4ccc(C(C)(C)C)s4)C(=O)O)cc3F)nc2)cc1 (stereo not drawn) [Compound 391]
14,< 800,CCCCCCCOc1ccc(-c2cnc(-c3ccc(C[C@H](NC(=O)c4ccc(C(C)(C)C)cc4)C(=O)NCCC(=O)O)cc3)nc2)cc1C [Compound 698]
15,800 to 2500,CCCCCCCc1ccc(-c2cnc(-c3ccc(C[C@H](NC(=O)c4ccc(C(C)(C)C)s4)C(=O)N4CC[C@H](C(=O)O)C4)cc3)nc2)cc1 [Compound 765]
16,800 to 2500,CCCCCCCOc1ccc(-c2cnc(-c3ccc(C[C@H](NC(=O)c4cnn(C(C)(C)C)c4)C(=O)N4CC[C@H](C(=O)O)C4)cc3)nc2)cc1 [Compound 867]
17,< 800,CCCCCCCOc1ccc(-c2cnc(-c3ccc(C[C@H](NC(=O)c4ccc(C(C)(C)C)cc4)C(=O)NCC(C(=O)O)c4ccccc4)cc3)nc2)cc1 (stereo partly drawn) [Compound 556]
18,< 800,CCCCCCCOc1ccc(-c2cnc(-c3ccc(C[C@H](NC(=O)c4ccc(C(C)(C)C)s4)C(=O)NC(C(=O)O)C(O)c4ccc(OC)cc4)cc3)nc2)cc1 (stereo partly drawn) [Compound 644]
19,2500 to 5000,"CCCCCCCOc1ccc2cc(-c3ccc(C[C@H](NC(=O)c4ccc(C(C)(C)C)cc4)C(=O)O)cc3)ncc2c1 [Compound 672, (S)-2-(4-(tert-butyl)benzamido)-3-(4-(7-(heptyloxy)isoquinolin-3-yl)phenyl)propanoic acid]"
20,800 to 2500,CC(C)(C)c1ccc(-c2cnc(-c3ccc(C[C@H](NC(=O)c4ccc(C(C)(C)C)s4)C(=O)N4CC(C(=O)O)C4)cc3)nc2)cc1 [Compound 783]
21,800 to 2500,CCCCCOc1ccc(-c2cnc(-c3ccc(C[C@H](NC(=O)c4ccc(C(C)(C)C)s4)C(=O)N4CC(C(=O)O)C4)cc3)nc2)cc1 [Compound 787]
22,800 to 2500,CCOC1CC(c2ccc(-c3cnc(-c4ccc(C[C@H](NC(=O)c5ccc(C(C)(C)C)s5)C(=O)N[C@H](C)C(=O)O)cc4)nc3)cc2)C1 (stereo partly drawn) [Compound 1130]
23,2500 to 5000,CC(C)(C)c1ccc(-c2cnc(-c3ccc(C[C@H](NC(=O)c4ccc(C(C)(C)C)s4)C(=O)NC(C(=O)O)C(O)c4ccccc4)cc3)nc2)cc1 (stereo partly drawn) [Compound 932]
24,2500 to 5000,CCCCCCCOc1ccc(-c2cnc(-c3ccc(C[C@H](NC(=O)c4ccc(C(C)(C)C)s4)C(=O)N(CC)CCO)cc3)nc2)cc1 [Compound 969]
25,800 to 2500,CCCc1ccc(-c2ccc(-c3cnc(-c4ccc(C[C@H](NC(=O)c5ccc(C(C)(C)C)s5)C(=O)N[C@H](C)C(=O)O)cc4)nc3)cc2)cc1 [Compound 1136]
26,800 to 2500,CCCCCCCOc1ccc(-c2cnc(-c3ccc(C[C@H](NC(=O)c4ccc(C(C)(C)C)s4)C(=O)NS(N)(=O)=O)cc3)nc2)cc1 [Compound 421]
27,2500 to 5000,CCCCCCCOc1ccc(-c2cnc(-c3ccc(C[C@H](NC(=O)c4ccc(C(C)(C)C)s4)C(=O)NC[C@@H]4CCNC4)cc3)nc2)cc1 [Compound 439]
28,5000 to 10000,CCCCCCCOc1ccc(-c2cnc(-c3ccc(C[C@H](NC(=O)c4ccc(C(C)(C)C)cc4)C(=O)NCCC(=O)O)cc3)nc2)cc1OC [Compound 699]
29,5000 to 10000,C[C@@H](NC(=O)[C@H](Cc1ccc(-c2ncc(-c3cc(O)cc(OC(F)(F)F)c3)cn2)cc1)NC(=O)c1ccc(C(C)(C)C)s1)C(=O)O [Compound 1020]
